Results reported in patent US20200397965A1, “METHOD AND SYSTEM FOR […] MONOXIDE (CO) ADMINISTRATION TO EX-VIVO FLUIDS” (Julius-Maximilians-Universitaet Wuerzburg, priority 2018, published 2020).

Test: ICP-MS analysis for molybdenum in harvested organs and blood after ECCORS CO delivery in veno-arterial ECMO
Format: in vivo, landrace-hybrid pigs
Settings: swine on ECMO with ECCORS, Beck1 injected into FeCl3 secondary circuit behind silicone membrane
Procedure: After obtaining consent by Regierungspraesidium Freiburg, seven landrace-hybrid pigs (weight 52±2 kg) were anesthetized (continuous infusion of propofol, fentanyl and cisatracurium), mechanically ventilated and monitored with electrocardiogram, pulse-oximetry and invasive blood pressure measurement by cannulating the carotid and pulmonary artery. Instrumentation with veno-arterial ECMO (extracorporeal membrane oxygenation) was carried out in a sterile technique: Venous access was achieved by ultrasound-guided cannulation of femoral vein (21 French HLS cannula, Maquet, Rastatt, Germany), while arterial inflow into the femoral artery was established using 17 French HLS cannula from Maquet, (Rastatt, Germany). The ECMO circuit (primary circuit) was then set-up using a customary centrifugal pump head (Revolution 5, Sorin, Rome, Italy), an oxygenator (EOS ECMO, Sorin, Rome, Italy), and 3/8” tubing for interconnection. The system was regulated using a modified console (core element: SCP-Console, Sorin, Rome, Italy).
The ECCORS was then integrated in line with the oxygenator into the primary ECMO circuit. A commercially available PDMSXA-1.0 silicone membrane module from PermSelect (AnnArbor, II) served as core functional element of the ECCORS. […]
Tissue was analyzed for CO effects and residual CORM constituents in the harvest organs and blood using ICP-MS analysis for molybdenum. […]

Substance: Mo(CO)3(CNCH2COOH)3 [CORM]
- toxic components of CORM / transition metals found in tissue or blood: no transition metals can be found in the tissue or blood
